# Data: patent US7632814B2, “HYD1 peptides as anti-cancer agents” (University of South Florida, priority 2006, dated 2009)
# Where no end group is shown, it is not given here. [ ]: non-standard residue; d: D form.
# Tests used:
# [1] = tested on: DUH-H prostate carcinoma cells; conditions: DeRoock et al. 2001; cited from earlier work
# H929 cells = assay: HS-5 co-culture (SF+A) model of drug resistance, melphalan apoptosis; type: cell-based
# Protocol: (§1) Co-culture model. HS-5/GFP cells were plated at a density of 500,000 cells per ml and incubated overnight. Myeloma cells were incubated with vehicle control (water), 50 μg/ml HYD1 or 50 μg/ml HYD1S 30 minutes prior to the addition of myeloma cells (400,000 cell/ml) to either control plates or plates containing HS-5 cells. Myeloma cells were incubated with HS-5 cells for three hours prior to the addition of melphalan. Apoptotic cells were measured in GFP negative myeloma cells, by annexin PE staining and FACS analysis (n=9). ANOVO was performed to determine significance between conditions.
# (§2) Briefly, 8226 myeloma cells were pre-incubated with varying concentrations of either HYD1 or the scrambled HYD1S peptide for 30 minutes prior to allowing cells to attach to FN for two hours. Following two hours of cell adhesion, the amount of cells adherent to FN was measured. The next objective was to determine whether treatment of tumor cells with HYD1 results in potentiation of melphalan induced cell death in the BMS co-culture model (SF+A). […] For these studies, the HYD1 and HYD1S were pre-incubated with the […] for 30 minutes, and then cells and culture media containing the peptide were placed into the S-5 culture dish. Myeloma cells were co-cultured for an additional 3 hours with HS-5 cells before the addition of melphalan. Twenty-four hours after drug treatment, apoptosis was measured by Annexin V-PE positive events by FACS analysis. The HS-5 cells constitutively express GFP and thus it is possible to gate GFP negative cells only (myeloma cells) for the apoptotic analysis.
# 8226 cells = assay: as above; type: cell-based
# Protocol: as §1, §2
substance,measurement,setting,value
kikmviswkg ([dK][dI][dK][dM][dV][dI][dS][dW][dK]G) [HYD1],"inhibition of adhesion to FN, laminin 1, laminin 5 and collagen V",[1],inhibit adhesion
same,resistance to melphalan associated with HS-5 co-culture,H929 cells; H929 cells,reduced resistance
same,potentiation of melphalan-induced apoptosis in the SF+A model,"H929 cells; H929 cells co-cultured with HS-5, 50 μg/ml peptide, with melphalan",potentiates melphalan-induced apoptosis
same,resistance to melphalan associated with the bone marrow stroma model,8226 cells; 8226 cells,completely reversed resistance
same,potentiation of melphalan-induced apoptosis in the SF+A model,"8226 cells; 8226 cells co-cultured with HS-5, 50 μg/ml peptide, with melphalan",potentiates melphalan-induced apoptosis
